Source: patent US10266497B2 (ABIDE THERAPEUTICS, INC., priority 2017, dated 2019)

What was measured:
[1] = molecular target: T1, MAGL (Homo sapiens, UniProt Q99685); assay: In vitro competitive activity-based protein profiling, MAGL, human; settings: read-out: MAGL % inh. 1 μM (human)
T1 sequence (Q99685 1-303): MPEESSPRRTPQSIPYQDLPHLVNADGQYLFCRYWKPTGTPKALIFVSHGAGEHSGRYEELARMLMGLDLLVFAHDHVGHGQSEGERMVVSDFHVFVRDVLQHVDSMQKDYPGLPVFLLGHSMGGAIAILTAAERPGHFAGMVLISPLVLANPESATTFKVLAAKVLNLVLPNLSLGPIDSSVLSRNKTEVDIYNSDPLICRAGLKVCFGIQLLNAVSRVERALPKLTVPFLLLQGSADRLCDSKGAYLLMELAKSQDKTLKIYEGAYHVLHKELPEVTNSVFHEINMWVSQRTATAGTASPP

[2] = molecular target: T2, MAGL (Mus musculus, UniProt O35678); assay: In vitro competitive activity-based protein profiling, MAGL, mouse; settings: read-out: MAGL % inh. 1 μM (mouse)
T2 sequence (O35678 1-303): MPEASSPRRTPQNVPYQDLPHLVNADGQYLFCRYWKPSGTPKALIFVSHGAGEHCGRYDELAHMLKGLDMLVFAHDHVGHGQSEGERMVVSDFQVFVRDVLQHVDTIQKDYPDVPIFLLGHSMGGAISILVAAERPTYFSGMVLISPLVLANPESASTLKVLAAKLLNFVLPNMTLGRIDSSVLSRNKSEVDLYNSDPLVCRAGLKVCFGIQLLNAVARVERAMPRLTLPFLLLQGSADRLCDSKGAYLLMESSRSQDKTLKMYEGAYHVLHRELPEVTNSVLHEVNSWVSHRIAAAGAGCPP

Row | Compound | inhibition at 1 µM [1] [%] | inhibition at 1 µM [2] [%]
1 | O=C(O)c1nn(C(=O)N2CCN(Cc3cccc(Oc4ccc(F)cc4)c3)CC2)cc1Cl [Example 320, 4-chloro-1-(4-(3-(4-fluorophenoxy)benzyl)piperazine-1-carbonyl)-1H-pyrazole-3-carboxylic acid] | > 75 | > 75
2 | O=C(O)c1ccn(C(=O)N2CCN(Cc3cc(F)cc(Oc4cccc(Cl)c4)c3)CC2)n1 [Example 321, 1-(4-(3-(3-chlorophenoxy)-5-fluorobenzyl)piper-azine-1-carbonyl)-1H-pyrazole-3-carboxylic acid] | > 75 | > 75
3 | Cc1c(CN2CCC3(CCN(C(=O)n4ccc(C(=O)O)n4)CC3)C2)cccc1-c1ccccc1 [Example 322, 1-(2-((2-methyl-[1,1′-biphenyl]-3-yl)methyl)-2,8-diazaspiro[4.5]decane-8-carbonyl)-1H-pyrazole-3-carboxylic acid] | > 75 | > 75
4 | O=C(O)c1nn(C(=O)N2CCN(Cc3cc(Cl)cc(-c4cncnc4)c3)CC2)cc1Cl [Example 323, 4-chloro-1-(4-(3-chloro-5-(pyrimidin-5-yl)benzyl)piperazine-1-carbonyl)-1H-pyrazole-3-carboxylic acid] | > 75 | > 75
5 | O=C(O)c1ccn(C(=O)N2CCC3(CCN(Cc4cccc(Oc5ccccn5)c4)C3)CC2)n1 [Example 324, 1-(2-(3-(pyridin-2-yloxy)benzyl)-2,8-diazaspiro[4.5]decane-8-carbonyl)-1H-pyrazole-3-carboxylic acid] | 25 to 50 | 0 to 25
6 | C[C@@H]1CN(Cc2ccc(C(F)(F)F)cc2N2CCCC2)CCN1C(=O)n1ccc(C(N)=O)n1 [Example 325, (R)-1-(2-methyl-4-(2-(pyrrolidin-1-yl)-4-(trifluoromethyl)benzyl)piperazine-1-carbonyl)-1H-pyrazole-3-carboxamide] | > 75 | > 75
7 | C[C@H]1CN(Cc2ccc(C(F)(F)F)cc2N2CCCC2)CCN1C(=O)n1ccc(C(N)=O)n1 [Example 326, (S)-1-(2-methyl-4-(2-(pyrrolidin-1-yl)-4-(trifluoromethyl)benzyl)piperazine-1-carbonyl)-1H-pyrazole-3-carboxamide] | > 75 | > 75
8 | O=C(O)c1ccn(C(=O)N2CCC(OCc3cc(N4CCCC4)cc(C(F)(F)F)c3)CC2)n1 [Example 331, 1-(4-((3-(pyrrolidin-1-yl)-5-(trifluoromethyl)benzyl)oxy)piper-idine-1-carbonyl)-1H-pyrazole-3-carboxylic acid] | > 75 | > 75
9 | O=C(O)c1ccn(C(=O)N2CCN(Cc3ccc(C(F)(F)F)cc3N3CC[C@H](O)C3)CC2)n1 [Example 332, (S)-1-(4-(2-(3-hydroxypyrrolidin-1-yl)-4-(trifluoromethyl)benzyl)piperazine-1-carbonyl)-1H-pyrazole-3-carboxylic acid] | > 75 | > 75
10 | O=C(O)c1ccn(C(=O)N2CCN(Cc3ccc(C(F)(F)F)cc3N3CC[C@@H](O)C3)CC2)n1 [Example 333, (R)-1-(4-(2-(3-hydroxypyrrolidin-1-yl)-4-(trifluoromethyl)benzyl)piperazine-1-carbonyl)-1H-pyrazole-3-carboxylic acid] | > 75 | > 75
11 | O=C(O)c1ccn(C(=O)N2CCC3(CCN(Cc4cccc(C(F)(F)F)c4Cl)C3)CC2)n1 [Example 339, 1-(2-(2-chloro-3-(trifluoromethyl)benzyl)-2,8-diazaspiro[4.5]decane-8-carbonyl)-1H-pyrazole-3-carboxylic acid] | > 75 | > 75
12 | O=C(O)c1ccn(C(=O)N2CCC3(CCN(Cc4cccc(Cl)c4C(F)(F)F)C3)CC2)n1 [Example 340, 1-(2-(3-chloro-2-(trifluoromethyl)benzyl)-2,8-diazaspiro[4.5]decane-8-carbonyl)-1H-pyrazole-3-carboxylic acid] | > 75 | > 75
13 | Cc1c(CO[C@H]2C[C@@H]3CN(C(=O)n4cc(Cl)c(C(=O)O)n4)C[C@@H]3C2)cccc1C(F)(F)F [Example 341, 4-chloro-1-(trans-5-((2-methyl-3-(trifluoromethyl)benzyl)oxy)octa-hydrocyclopenta[c]pyrrole-2-carbonyl)-1H-pyrazole-3-carboxylic acid] | > 75 | > 75
14 | O=C(O)c1ccn(C(=O)N2CCC3(CCN(Cc4ccc(Cl)c(N5CCCC5)c4)C3)CC2)n1 [Example 343, 1-(2-(4-chloro-3-(pyrrolidin-1-yl)benzyl)-2,8-diazaspiro[4.5]decane-8-carbonyl)-1H-pyrazole-3-carboxylic acid] | 25 to 50 | 0 to 25
15 | O=C(O)c1ccn(C(=O)N2C[C@H]3C[C@H](OCc4ccc(Cl)c(-c5nccs5)c4)C[C@H]3C2)n1 [Example 345, 1-(trans-5-((4-chloro-3-(thiazol-2-yl)benzyl)oxy)octa-hydrocyclopenta[c]pyrrole-2-carbonyl)-1H-pyrazole-3-carboxylic acid] | > 75 | > 75
16 | Cc1cn(C(=O)N2CCN(Cc3cc(F)cc(Oc4ccc(Cl)cc4)c3)CC2)nc1C(=O)O [Example 346, 1-(4-(3-(4-chlorophenoxy)-5-fluorobenzyl)piper-azine-1-carbonyl)-4-methyl-1H-pyrazole-3-carboxylic acid] | > 75 | > 75
17 | C[C@@H]1CN(Cc2cc(F)cc(Oc3ccc(Cl)cc3)c2)CCN1C(=O)n1ccc(C(=O)O)n1 [Example 348, (R)-1-(4-(3-(4-chlorophenoxy)-5-fluorobenzyl)-2-methylpiperazine-1-carbonyl)-1H-pyrazole-3-carboxylic acid] | > 75 | > 75
18 | C[C@H]1CN(Cc2cc(F)cc(Oc3ccccc3Cl)c2)CCN1C(=O)n1ccc(C(=O)O)n1 [Example 349, (S)-1-(4-(3-(2-chlorophenoxy)-5-fluorobenzyl)-2-methylpiperazine-1-carbonyl)-1H-pyrazole-3-carboxylic acid] | > 75 | > 75
19 | C[C@@H]1CN(Cc2cc(F)cc(Oc3ccccc3Cl)c2)CCN1C(=O)n1ccc(C(=O)O)n1 [Example 350, (R)-1-(4-(3-(2-chlorophenoxy)-5-fluorobenzyl)-2-methylpiperazine-1-carbonyl)-1H-pyrazole-3-carboxylic acid] | > 75 | > 75
20 | C[C@@H]1CN(Cc2ccc(-c3ccccc3)cc2C(F)(F)F)CCN1C(=O)n1ccc(C(=O)O)n1 [Example 351, (R)-1-(2-methyl-4-((3-(trifluoromethyl)-[1,1′-biphenyl]-4-yl)methyl)piperazine-1-carbonyl)-1H-pyrazole-3-carboxylic acid] | > 75 | > 75
21 | O=C(O)c1ccn(C(=O)N2CCN(Cc3cccc(Oc4cnccc4C(F)(F)F)c3)CC2)n1 [Example 352, 1-(4-(3-((4-(trifluoromethyl)pyridin-3-yl)oxy)benzyl)piper-azine-1-carbonyl)-1H-pyrazole-3-carboxylic acid] | > 75 | > 75
22 | O=C(O)c1ccn(C(=O)N2CCN(Cc3cccc(Oc4cccc(C(F)(F)F)n4)c3)CC2)n1 [Example 353, 1-(4-(3-((6-(trifluoromethyl)pyridin-2-yl)oxy)benzyl)piper-azine-1-carbonyl)-1H-pyrazole-3-carboxylic acid] | > 75 | > 75
23 | O=C(O)c1ccn(C(=O)N2CCN(Cc3cccc(Oc4ccc(C(F)(F)F)nc4)c3)CC2)n1 [Example 354, 1-(4-(3-((6-(trifluoromethyl)pyridin-3-yl)oxy)benzyl)piper-azine-1-carbonyl)-1H-pyrazole-3-carboxylic acid] | > 75 | > 75
24 | O=C(O)c1ccn(C(=O)N2CCN(Cc3cccc(Oc4ccnc(C(F)(F)F)c4)c3)CC2)n1 [Example 355, 1-(4-(3-((2-(trifluoromethyl)pyridin-4-yl)oxy)benzyl)piper-azine-1-carbonyl)-1H-pyrazole-3-carboxylic acid] | > 75 | > 75
25 | O=C(O)c1nn(C(=O)N2CC3CN(Cc4cc(Cl)cc(C(F)(F)F)c4)CC3C2)cc1Cl (stereo not shown) [Example 357, 4-chloro-1-(5-(3-chloro-5-(trifluoromethyl)benzyl)octahydro-pyrrolo[3,4-c]pyrrole-2-carbonyl)-1H-pyrazole-3-carboxylic acid] | > 75 | > 75
26 | O=C(O)c1ccn(C(=O)N2CCC3(CCN(Cc4cccc(-c5ccccc5)c4Cl)C3)CC2)n1 [Example 358, 1-(2-((2-chloro-[1,1′-biphenyl]-3-yl)methyl)-2,8-diazaspiro[4.5]decane-8-carbonyl)-1H-pyrazole-3-carboxylic acid] | > 75 | > 75
